Test results published in patent publication US6576607B1, “Methods using CNS neurite outgrowth modulators” (Acorda Therapeutics, priority 1995, dated 2003).

Legend:
small cerebellar neurons = experiment: Neurite outgrowth of small cerebellar neurons on substrate-coated L1 monoclonal antibodies; format: cell-based; details: neurons on L1 and antibody 557.B6
Excerpt: To determine the domains of neural cell adhesion molecule L1 involved in neurite outgrowth, monoclonal antibodies against L1 were generated and their effects on neurite outgrowth of small cerebellar neurons in culture investigated. […] These observations indicate for the first time a distinct site on cell surface-bound L1 as a prominent signal transducing domain through which the recognition events appear to be funnelled to trigger neurite outgrowth, increase turnover of inositol phosphates and elevate intracellular levels of Ca^2+.

[1] = system: mouse mesencephalon cells; experiment: Mesencephalon cells cultured on L1-coated plates, stained for dopamine; format: cell-based; details: plates coated with laminin, 7 days
Experimental: An experiment was performed to further elucidate the activity of L1 with CNS nerve tissue. Specifically, aliquot samples of mouse mesencephalon cells were plated and cultured on four separate plates having media prepared as follows: the first control plate was coated with poly-L-lysine alone; a second plate was coated with poly-L-lysine and L1; a third control plate was coated with poly-L-lysine and laminin; and a fourth plate was coated with poly-L-lysine, laminin and L1. All plates received aliquot amounts of cells and were incubated under identical conditions. After 7 days, the plates were all stained for the presence of dopamine and thereafter observed.

[2] = system: mesencephalic neurons (DBH+); experiment: Survival and neurite outgrowth of DBH+ mesencephalic neurons; format: cell-based, rat; details: DBH+ neurons after 7 days in vitro, mean ± SEM
Experimental: Soluble L1 was made in COS cells as a recombinant L1-Fc fusion protein by the procedure described in Neuron 14:57-66, 1995. The recombinant protein was purified by Protein A affinity chromatography, and was used either as a substrate coated onto plastic or as a soluble molecule added to the culture medium at approximately 1-10 μg/ml. Neurite outgrowth and survival of mesencephalic neurons from day 17 rat embryos were examined in culture after 7 days in vitro maintenance. Dopaminergic neurons were recognized by immunostaining for dopamine-β-hydroxylase (DBH) and quantified using IBAS morphometric equipment. Cultures with added soluble L1-Fc were maintained on poly-DL-ornithine (PORN) and substrate-coated L1-Fc was added on top of previously coated PORN (under conditions described in Appel et al, J. Neuroscience 13:4764-4775, 1993). NCAM-Fc was used as a control.

NMDA receptor = experiment: NMDA receptor-mediated EPSPs in hippocampal slices; format: cell-based, rat; details: 30 μM, in the presence of CNQX
Experimental: NMDA receptor-mediated EPSP's were isolated by applying 30 μM of the non-NMDA blocker 6-cyano-7-nitroquinoxaline-2,3-dione (CNQX; Tocris) starting 20 minutes prior to the application of antibodies or glycopeptides.

[3] = system: pyramidal neurons in the CA1 region of rat hippocampal slices; experiment: Long term potentiation (LTP) induced by theta burst stimulation in hippocampal slices; format: cell-based; details: perfusion of 10 μM
Experimental: Transverse hippocampal slices (400 μm) from halothane-anaesthetized male Wistar rats (180-220 g) were prepared using standard techniques. Slices were maintained in an interface chamber and initially allowed to recover for 45 min. in a hyperosmolar (320 mOsm/kg) artificial cerebrospinal fluid (ACSF) at room temperature. The bath temperature was then raised to 30° C. and the medium was changed to a normotonic ACSF (307 mOsm/kg) containing (in mM): NaCl, 124.0; KCl, 2.5; MgSO24, 2.0: CaCl2, 2.5; KH2PO4, 1.25; NaHCO3, 26.0; glucose, 10; sucrose, 4; bubbled with 95% O2/5% CO2 (pH 7.4); perfusion rate: 0.75 ml/min. The Schaffer collateral/commissural fibers were stimulated by twisted platinum-iridium wires (50 μm diameter) placed in the stratum radiatum of the CA1 region. Test stimuli consisted in monophasic impulses of 100 μs duration every 30 seconds and the stimulus strength was adjusted to obtain 30% of the maximal EPSP amplitude (maximal EPSP without superimposed population spike). EPSP's were recorded from the CA1 stratum radiatum by means of 2 glass micropipettes (2 M NaCl, 1-5 MΩ) positioned about […] apart from the stimulation electrode on each side. […]

hippocampal neurons = experiment: Neurite outgrowth of hippocampal neurons in coculture with L929 transfectants; format: cell-based, rat; details: CHL1-transfected L929 cells, 11-12 h coculture
Experimental: In addition to the studies conducted and reviewed above, further experiments were conducted withy CHL1 to define its role in neurite outgrowth and the parameters of its action. Thus and as depicted and described earlier with reference to FIGS. 28A-C, hippocampal neurons were co-cultured with L929 transfectants and L929 parental cells. Particularly, hippocampal neurons derived from rats of embryonal day 18 were cultured in subconfluent monolayers of L929-transfectants or parental L929 cells. After 11-12 h of coculture the cells were fixed and labeled with monoclonal antibody 412 (recognizing the HNK-1 carbohydrate epitope) or a polyclonal antibody against NCAM. For measurement of the total neurite length only the longest neurite per each branch was determined due to the highly branched character of the neurons in these cultures. The results of the experiments are given below with letter reference to the respective figures within FIG. 28. […] Neurons were cocultured with CHL1-transfectants (CHL1) or parental L929 cells (L929) with (+AB) or without polyclonal antibodies against recombinant CHL1 (500 μg/ml of purified IgG, added 45 min after plating) and on L1-transfectants. The mean total neurite length of 4-5 independent experiments is shown. Error bars are standard error of the mean. (B) Different CHL1 lines promote neurite outgrowth better than L1. […]

cerebellar neurons = experiment: Neurite outgrowth of small cerebellar neurons in coculture with L929 transfectants; format: cell-based, mouse; details: CHL1-transfected L929 cells, 20 h
Experimental: CHL1 activity was also tested with cerebellar neurons as set forth with reference to FIG. 29. Thus, cerebellar neurons derived from 6-7 day old mice were cultured for 20 h on CHL1-transfectants (CHL1), CHL1-transfected non-expressing L929 cells (Mock), parental L929, or L1-transfectants (L1). The results are likewise set forth in paragraphs that correspond in designation to the sub-figures within FIG. 29. […] The mean of total neurite length of three experiments is shown. Error bars are standard error of the mean. (B) CHL1 promotes neurite outgrowth also of small cerebellar neurons better than L1. The total neurite length is given as percent of L929 cells as a control (ctr). Error bars are standard error of the mean. (C) Increase of neurite outgrowth of cerebellar neurons by CHL1 affects all size classes of neurites. Cumulative frequency of distribution plot of the total neurite length of the percentage of neurons with neurites longer than or equal to a certain length x (vertical axis) was plotted as a function of neurite length x (horizontal axis).

## pertussis toxin
Small cerebellar neurons
  inhibition of neurite outgrowth: inhibit neurite outgrowth on L1 and antibody 557.B6

## laminin
[1]
  neurite outgrowth and cell number: greater neurite outgrowth, but not more cells than those coated with L1

## soluble L1: recombinant L1-Fc fusion protein made in COS cells, added to the culture medium at 1-10 μg/ml
[2]; per unit field
  number of neurons: 98 ± 7
[2]
  length of neurites (total neurite length per neuron): 135 ± 27 μm

## N[C@H](CCCP(=O)(O)O)C(=O)O [D-AP5, D(−)-2-amino-5-phosphonopentanoic acid]
NMDA receptor
  NMDA receptor-mediated EPSPs: completely suppressed
[3]
  induction of LTP: totally prevented

B1: CHL1: close homolog of L1, presented by CHL1-transfected L929 cells (protein)
chain: MMELPLCGRGLILSLIFLLLKLSAAEIPLSVQQVPTIVKQSYVQVAFPFDEYFQIECEAKGNPEPIFSWTKDDKPFDLSDPRIIAANNSGTFKIPNEGHISHFQGKYRCFASNRLGTAVSEEIEFIVPGVPKFPKEKIEPIDVEEGDSIVLPCNPPKGLPPLHIYWMNIELEHIEQDERVYMSQRGDLYFANVEENDSRNDYCCFAAFPKLRTIVQKMPMKLTVNSSNSIKQRKPKLLLPPAQMGSLSAKTVLKGDTLLLECFAEGLPTPHIQWSKPGSELPEGRATIEVHEKTLKIENISYQDRGNYRCTANNLLGKASHDFHVTVEEPPRWKKKPQSAVYSTGSSGILLCEAEGEPQPTIKWRLNGLPIEKHPFPGDFMFPREISFTNLLFNHTGVYQCEASNIHGTILANANIDVIDVIPLIKTKNEENYATVVGYSAFLHCEYFASPKATVVWEVADETHPLEGDRYHTHENGTLEIYRTTEEDAGSYSCWVDNAMGKAVITANLDIRNATKLRVSPKNPRIPKSHVLELYCESQCDSHLKHSLKLSWSKDGEAFEMNGTEDGRIVIDGAYLTISNITAEDQGVYSCSAQTSLDSTSEKTQVTVLGVPDPPETFTCQKDKNRSVRLLREAGDDHNSKSASTIVEFEGNREEPGKWEELTRVQGEETDVVLSLAPYVRYQFRVTAVNEVGRSHASLPSDHHETPPAAPDKNPQNIRVQASQPKEMIIKWEPLKSMEQNGPGLEYKVSWKPQGAPEEWEEEIVTNHTLRVMTPTVYAPYDVKVQAINQLGSSPDPQPVTLYSGEDYPSTAPVIQRVDVMNSTLVKVTWSSIPKETVHGLLRGYQINWWKTKSLLDGRTHPKEVNILRFSGQRNSGMVPSLDPFSEFHLTVLAYNSKGAGPESEPYIFQTPEGVPEQPSFLKVIKVDKDTATLSWGLPKKLNGNLTGYLLQYQIINDTYELGELNEINVTTPSKSSWHLSNLNSTTKYKFYLRACTSRGCGKPISEEGATLGEGSKGIRKITEGVNVTQKIHPVEVLVPGAEHIVHLMTKNWGDNDSIFQDVIETRGREYAGLYDDISTQGWFIGLMCAIALLTLILLTICFVKRNRGGKYSVKEKEDLHPDPEVQSAKDETFGEYSDSDEKPLKGSLRSLNRNMQPTESADSLVEYGEGDQSIFNEDGSFIGAYTGAKEKGSVESNGSSTATFPLRA
modifications: murine
notes: close homolog of L1, presented by CHL1-transfected L929 cells
Hippocampal neurons
  neurite outgrowth: Neurite outgrowth is promoted by CHL1 and inhibitable by antibodies
Cerebellar neurons
  neurite outgrowth: promotes neurite outgrowth of small cerebellar neurons
